One test concerns 3T3-L1 preadipocytes. The test is described as follows: Adipogenic differentiation of 3T3-L1 preadipocytes (Oil red O, triglyceride content). The test is classed as cell-based, mouse. The procedure:
(§1) 3T3-L1 preadipocytes were grown to confluency in DMEM containing 10% CS. At 2 days post-confluency, the cells were stimulated with differentiation medium (DMEM containing 10% FBS, 10 μg/mL insulin, 1 μM dexamethasone, and 0.5 mM IBMX) for 48 h. Then, the cells were exposed in post-differentiation-maintaining medium (DMEM containing 10% FBS and 10 μg/mL insulin) for a further 48 h, which was replaced with expansion medium (DMEM containing 10% FBS) every 2 days after then. Compounds were added to the post-differentiation and expansion medium. At day 4, the cells were harvested for RNA preparation. At Day 8, the cells were fixed with 10% formaldehyde and stained with Oil red O solution. After washing with water, photos were taken. Solubilized dye was quantified at 550 nm. In addition, total triglyceride of the cells was measured by a total TG measurement kit (Applygene, China). Experiments were performed at least three times.

Test [1] has as its system PPARγ target genes in differentiating 3T3-L1 cells. Description: Expression of adipogenesis-related and PPARγ-responsive genes in differentiating 3T3-L1 adipocytes (qPCR). Format: cell-based, mouse. The procedure: as §1
(§2) Total RNA was extracted using TRIzol reagent (Invitrogen). First-strand cDNA was synthesized from the total RNA using a reverse transcriptional kit (TransGen). Quantitative PCR with SYBR Green (Roche Diagnostics, Lewes, UK) was performed on a Stratagene MX3000P real-time PCR system (Agilent). Melting curves were obtained, and the specificity of PCR products was checked on agarose gels. Relative mRNA expression was determined by the ΔΔCt method and normalized to GAPDH mRNA levels.
(Real-time PCR tracks product formation cycle by cycle.)

The test system of the next test is MC3T3-E1 preosteoblasts. Description: Osteoblastic differentiation of MC3T3-E1 cells (Alizarin red S, Alp activity). Particulars: F12016 1, 10, 30 μM. Format: cell-based. The procedure: (§3) MC3T3-E1 cells were cultured in α-MEM to confluency in 24-well plates and then cultured in differentiation medium (α-MEM supplemented with 200 μM ascorbic acid and 10 mM β-glycerophosphate) for 7, 14, and 21 days, which was replaced every 3 days. The cells were treated with DMSO, rosiglitazone, or F12016 at the start of differentiation. At day 8, 15 and 22, total RNA was isolated, and real-time PCR was performed as described below.
Mature osteoblasts were stained with Alizarin red S and Alp activity were measured at day 22. In brief, cells were fixed with 75% ethanol and stained with 40 mM Alizarin red S solution (pH 4.1–4.3) for 10 min. For Alp assay, the cells were harvested and sonicated on ice with two 30s-pulses. Supernatant of lysate was incubated with isopyknic 1.0 mg/ml pNPP (Sigma–aldrich) solution (1 M diethanolamine buffer, 0.5 mM magnesium chloride) for 30 min at 37°C. The reaction was measured at 405 nm. Relative ALP activity was normalized to the protein concentration.

Test [2] deals with osteoblast marker genes in MC3T3-E1 cells. The test is described as follows: Expression of osteoblast marker genes in MC3T3-E1 cells (qPCR). Format: cell-based. As for the experimental part:
as §3, §2

In the next test the test system is PPARγ LBD mutants. The test is classed as cell-based, human. The note with it: compared with wild-type PPARγ LBD. As for the experimental part: All chemicals were purchased from Sigma-Aldrich (St. Louis, MO, USA). All medium and serum were obtained from Gibco (Invitrogen). […] Mutations in pBIND-PPARγ-LBD were created by site-directed mutagenesis using the Fast Mutagenesis System (TransGen Biotech, Beijing, China).
The determination of nuclear receptor activation was performed as previously. Briefly, HEK293T cells were transfected with GAL4-pGL4-luc reporter plasmid and pBIND-PPARγ-LBD expression plasmid using Lipofectamine 2000 (Invitrogen) for 6 h before treatment with compounds for 20–24 h. Activity was determined by the Luciferase Assay System (Promega).

Test [3] relates to osteoblast marker genes in MC3T3-E1 cells. Further details: method as in PMID 21892191. Particulars: rosiglitazone 10 μM; cited from earlier work.
In another test the test system is diabetic KKAy mice. The test is described as follows: Diabetic KKAy mice, 21 days treatment (fasting blood glucose, OGTT, ITT, body weight). Particulars: after 21 days, F12016 75 mg/kg, rosiglitazone 5 mg/kg.

Procedure for diabetic KKAy mice: Fasting blood glucose was measured with Onetoch Ultra Teststrip (Johnson & Johnson) at day 0, 3, 7, 14, 21, and body weight were monitored during these days.
After 14 days of treatment, oral glucose tolerance test (OGTT) was performed. Mice were fasted for 6 h with free access to water. 2 g/kg of glucose was given by gavage and blood glucose was measured at 0, 30, 60, 90, and 120 min.
After 21 days of feeding, insulin tolerance test (ITT) was carried out. Mice were fasted for 4 h before being injected 1 U/kg of recombinant human insulin (Novo Nordisk) subcutaneously, and blood glucose was measured at 0, 40, 90, and 120 min after insulin injection.

As to `O=C(Nc1ccccc1)c1cc([N+](=O)[O-])ccc1Cl` [GW9662, reference compound], the “effect of co-incubation on rosiglitazone-induced adipogenesis” value in the test on 3T3-L1 preadipocytes (GW9662 20 μM plus RGZ 10 μM) was “weakened”.

On to `CN(CCOc1ccc(CC2SC(=O)NC2=O)cc1)c1ccccn1` (centres unmarked) [rosiglitazone, reference compound], for which the “intracellular triglyceride (TG) content” value in the test on 3T3-L1 preadipocytes (6 days of stimulation) is given as “significant increase”. Further, the “lipid accumulation / intracellular lipid droplets (Oil red O staining)” value in the test on 3T3-L1 preadipocytes (RGZ 0.1, 1, 10 μM, F12016 1, 10, 30 μM) was “significant increase in Oil red O staining”. For the same compound, the “mRNA levels of 11β-HSD1” value in test [1] is “similarly decreased the mRNA levels”. For the same compound, the “expression of fatty acid synthase (Fasn)” value in test [1] (both compounds to a similar extent) was “upregulated expression”. In the test on MC3T3-E1 preosteoblasts, the “alkaline phosphatase (Alp) activity” value was “significantly reduced alkaline phosphatase (Alp) activity” and the “mineralization (Alizarin Red S)” value is on record as “impaired calcification of bone cells”. The “expression of Alp and Col1” value in test [2] (7 days) was “reduced expressions”. In test [2] (7 days, rosiglitazone 1 μM, compared with control), the “expression of RANKL” value is reported as “not significantly changed”. Besides, in test [2] (Ibsp 14 days, Bglap 21 days), the “expression of Ibsp and Bglap” value is recorded as “reduced expressions”. In the test with PPARγ LBD mutants, the “activation of S289A, H323A, H449A and Y473A mutants” value is “nearly abolished”. Moreover, in test [3], the “expression of RANKL in differentiated MC3T3-E1 cells” value is given as “reduced expression of RANKL”. In the test with diabetic KKAy mice (insulin 1 IU/kg), the “blood glucose after insulin injection (ITT)” value was “significantly reduced blood glucose”. Also, the average body weight entry in the test on diabetic KKAy mice (vs vehicle) was “showed weight gain in a certain extent”.
